Source: a melting point compilation (Tetko et al.; mined from patent text by program, amines drawn as free bases though some values may be those of a salt)

melting point [°C] | Compound
105 to 107 | N#Cc1ccccc1OCCCN1CCC(NC(=O)Cc2ccccc2)CC1
211 to 212 | O=C(Cc1ccc(OCc2ccccc2)cc1)Nc1c(C(=O)O)oc2cc(-c3ccc(Cl)cc3)ccc12
152 to 153 | CC1(C)CC(Oc2nc(Cl)nc(N3C(C)(C)CCCC3(C)C)n2)CC(C)(C)N1O
142 | Cc1ccc(S(=O)(=O)Oc2ccc3nc(S(N)(=O)=O)sc3c2)cc1
110 to 115 | CC1(C)C=C(N2Cc3ccccc3C2=O)c2cc(S(=O)(=O)C(F)(F)F)ccc2O1
124 to 125 | Cc1nc(C)c(C(C)(O)c2cocc2Br)o1 (stereo not given)
164 to 165 | COc1ccc(C(=O)c2c(N)sc3c2CCN(Cc2ccccc2)C3)cc1
253 to 255 | CNc1nc(C)c(-c2ccnc(Nc3cccc(CNC(C)=O)c3)n2)s1
235 to 240 | N#Cc1ccc(Nc2ccc(C(F)(F)F)cc2Nc2ccc(C#N)cc2C(=O)O)c(C(=O)O)c1
126 to 127 | CC(C)(C)c1ccc(CCCCC(=O)CC2CCCCC2)cc1NC(=O)CC1c2ccccc2Oc2ccccc21
175 to 176 | CC1(C)NC(=O)N(c2cc(Cl)c(F)c(Cl)c2)C1=O
107 to 108 | Cc1cc(C)cc(Oc2nc(Cl)nc(Cl)c2C(C)C)c1
229 to 230 | COc1cc(Nc2cc(C(=O)NN)ccn2)cc(C(F)(F)F)c1
166 to 167 | O=C(O)c1ccc(O)c(Nc2cc(Cl)cc(Cl)c2)c1
125 | COc1cc(C=C2C(=O)CCc3ccc([N+](=O)[O-])cc32)c([N+](=O)[O-])cc1OC
181 to 183 | CN1C(=O)CC[C@]2(C)c3ccc(C=Cc4cnc5ccccc5c4)cc3CC[C@@H]12
172 to 177 | CON=Cc1sc(-c2ccc(O)cc2C)c(C)c1-c1ccc(O)c(F)c1
216 to 218 | CC1(C)CC(=O)c2c(nc(Cc3ccc(O)c(F)c3)c3[nH]c4ccccc4c23)C1
62 to 63.5 | CCOCCCCC(=S)c1ccc(C)cc1

melting point [°C] | Compound
66 to 68 | CCOC(=O)C(=Cc1cccn2cc(C(C)C)nc12)N=[N+]=[N-]
134 | N#Cc1ccc(COc2ccc(C(=O)NC[C@@H](C(=O)NO)N3CCCCC3)cc2)cc1
112 to 114 | CCn1cc2c3c(cccc31)CN(C(=O)OCc1ccccc1)C2
227 to 229 | CNC1=NS(=O)(=O)N=C1NCCSCc1csc(N(C)C)n1
75 to 77 | Cc1cc(C(C)C)cc(C)c1CO
124 | Cc1c(F)c(F)c(C(O)C#N)c(F)c1F (stereo not given)
60 to 62 | O=S(=O)(Oc1ccc2ccc(OS(=O)(=O)C(F)(F)F)cc2c1)C(F)(F)F
210 | CCCC(=O)Nc1n[nH]c2cc(-c3ccc(OC)cc3)ccc12
160 to 161 | CSC(=O)c1c(C(F)F)nc(C(F)(F)F)c(C(=O)SC)c1N
241 to 242 | CNC(=O)NC(=O)C(CC1CCCC1)c1ccc(S(C)(=O)=O)c([N+](=O)[O-])c1 (stereo not given)
59 to 60 | COC(=O)[C@H](C)OC(=O)c1cc(-n2c(=O)cc(C(F)(F)F)n(C)c2=O)ccc1Cl
138 to 139 | O=C(CCCI)Nc1ccccc1
86 to 87 | O=S(=O)(c1ccccc1)c1ncc(C(F)(F)F)cc1Cl
156 to 157 | CCN1CC2CCCC2C1CNC(=O)c1cc(Cl)c(NC(C)=O)cc1OC (stereo not given)
147 to 149 | CN(c1ccccc1)S(=O)(=O)c1ccc(NC(=O)C(C)(O)C(F)(F)F)cc1 (stereo not given)
179 to 180 | O=C(NC1=NCCCN1)Nc1c(Cl)cccc1Cl
160 to 164 | COc1cccc2c1Oc1sc(C)cc1C(=O)N2
141 to 143 | Nc1ncccc1C(=O)NCC1CCN(CC2COc3ccc(F)cc3O2)CC1 (stereo not given)

Compound | melting point [°C]
O=C(CBr)c1ccc(Br)s1 | 79
COC(=O)C1C=C2c3cccc4[nH]c(Br)c(c34)CC2N(C)C1 (stereo not given) | 124 to 125
CN1C2CCC1CC(O)(c1ccc(Cl)c(Cl)c1)C2 (stereo not given) | 153 to 154
